Key:
Assay in all cases: relative viability (nuclei count vs DMSO), 5 days (fraction); higher = more cells survive
NCI-H2009 = tested on: NCI-H2009
Procedure, shortened: (§1)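 A single step with final 0.05% Triton X-100, 1% formaldehyde and 1 ug/ml Hoechst fixed the cells and stained nuclei 5 days after treatment. Lung cancer cell lines in 1536-well plates had been treated by pin tool the day after seeding with one drug alone or a fixed anchor-drug dose plus five library-drug doses (not always all listed) in √10 steps, and nuclei were counted on 4× images. Relative viability is the ratio of nuclei in treated wells to nuclei in vehicle wells, taken as the median of duplicate plates.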

NCI-H661 = tested on: NCI-H661
Procedure, shortened: as §1

NCI-H1648 = tested on: NCI-H1648
Procedure, shortened: as §1

IA-LM = tested on: IA-LM
Procedure, shortened: as §1

NCI-H2342 = tested on: NCI-H2342
Procedure, shortened: as §1

Calu-6 = tested on: Calu-6
Procedure, shortened: as §1

HCC-78 = tested on: HCC-78
Procedure, shortened: as §1

EBC-1 = tested on: EBC-1
Procedure, shortened: as §1

NCI-H1299 = tested on: NCI-H1299
Procedure, shortened: as §1

NCI-H460 = tested on: NCI-H460
Procedure, shortened: as §1

A549 = tested on: A549
Procedure, shortened: as §1

NCI-H1703 = tested on: NCI-H1703
Procedure, shortened: as §1

NCI-H522 = tested on: NCI-H522
Procedure, shortened: as §1

## COc1nc(C)cnc1NS(=O)(=O)c1cccnc1-c1ccc(-c2nnco2)cc1 [Zibotentan] + O=C(c1cc(Cc2n[nH]c(=O)c3ccccc23)ccc1F)N1CCN(C(=O)C2CC2)CC1 [Olaparib] (partner 8 µM)
NCI-H2009; first compound 0.08 µM
  relative viability: 0.688
NCI-H2009; first compound 0.253 µM
  relative viability: 0.589
NCI-H2009; first compound 0.8 µM
  relative viability: 0.671
NCI-H2009; first compound 2.53 µM
  relative viability: 0.787
NCI-H661; first compound 0.08 µM
  relative viability: 0.776
NCI-H661; first compound 0.253 µM
  relative viability: 0.677
NCI-H661; first compound 0.8 µM
  relative viability: 0.791
NCI-H661; first compound 2.53 µM
  relative viability: 0.751
NCI-H1648; first compound 0.08 µM
  relative viability: 0.853
NCI-H1648; first compound 0.253 µM
  relative viability: 0.503
NCI-H1648; first compound 0.8 µM
  relative viability: 0.85
NCI-H1648; first compound 2.53 µM
  relative viability: 0.954
IA-LM; first compound 0.08 µM
  relative viability: 0.966
IA-LM; first compound 0.253 µM
  relative viability: 0.86
IA-LM; first compound 0.8 µM
  relative viability: 0.938
IA-LM; first compound 2.53 µM
  relative viability: 0.824
NCI-H2342; first compound 0.08 µM
  relative viability: 0.407
NCI-H2342; first compound 0.253 µM
  relative viability: 0.44
NCI-H2342; first compound 0.8 µM
  relative viability: 0.504
NCI-H2342; first compound 2.53 µM
  relative viability: 0.389
Calu-6; first compound 0.08 µM
  relative viability: 0.61
Calu-6; first compound 0.253 µM
  relative viability: 0.518
Calu-6; first compound 0.8 µM
  relative viability: 0.621
Calu-6; first compound 2.53 µM
  relative viability: 0.555
HCC-78; first compound 0.08 µM
  relative viability: 0.949
HCC-78; first compound 0.253 µM
  relative viability: 0.748
HCC-78; first compound 0.8 µM
  relative viability: 0.719
HCC-78; first compound 2.53 µM
  relative viability: 0.736
EBC-1; first compound 0.08 µM
  relative viability: 0.698
EBC-1; first compound 0.253 µM
  relative viability: 0.713
EBC-1; first compound 0.8 µM
  relative viability: 0.827
EBC-1; first compound 2.53 µM
  relative viability: 0.651
NCI-H1299; first compound 0.08 µM
  relative viability: 1.01
NCI-H1299; first compound 0.253 µM
  relative viability: 0.906
NCI-H1299; first compound 0.8 µM
  relative viability: 0.973
NCI-H1299; first compound 2.53 µM
  relative viability: 1
NCI-H460; first compound 0.08 µM
  relative viability: 0.42
NCI-H460; first compound 0.253 µM
  relative viability: 0.346
NCI-H460; first compound 0.8 µM
  relative viability: 0.322
NCI-H460; first compound 2.53 µM
  relative viability: 0.481
A549; first compound 0.08 µM
  relative viability: 0.365
A549; first compound 0.253 µM
  relative viability: 0.31
A549; first compound 0.8 µM
  relative viability: 0.333
A549; first compound 2.53 µM
  relative viability: 0.32
NCI-H1703; first compound 0.08 µM
  relative viability: 0.476
NCI-H1703; first compound 0.253 µM
  relative viability: 0.368
NCI-H1703; first compound 0.8 µM
  relative viability: 0.435
NCI-H1703; first compound 2.53 µM
  relative viability: 0.292
NCI-H522; first compound 0.08 µM
  relative viability: 0.65
NCI-H522; first compound 0.253 µM
  relative viability: 0.75
NCI-H522; first compound 0.8 µM
  relative viability: 0.681
NCI-H522; first compound 2.53 µM
  relative viability: 0.703

## O=c1cc(N2CCOCC2)oc2c(-c3cccc4c3sc3ccccc34)cccc12 + NC(=O)Nc1cc(-c2cccc(F)c2)sc1C(=O)N[C@H]1CCCNC1 [AZD7762] (partner 0.2 µM)
NCI-H1648; first compound 0.03162 µM
  relative viability: 0.889
NCI-H1648; first compound 0.1 µM
  relative viability: 0.714
NCI-H1648; first compound 0.3162 µM
  relative viability: 0.609
NCI-H1648; first compound 1 µM
  relative viability: 0.746
NCI-H2342; first compound 0.01 µM
  relative viability: 0.566
NCI-H2342; first compound 0.03162 µM
  relative viability: 0.483
NCI-H2342; first compound 0.1 µM
  relative viability: 0.366
NCI-H2342; first compound 0.3162 µM
  relative viability: 0.45
NCI-H2342; first compound 1 µM
  relative viability: 0.433
HCC-78; first compound 0.01 µM
  relative viability: 0.629
HCC-78; first compound 0.03162 µM
  relative viability: 0.616
HCC-78; first compound 0.1 µM
  relative viability: 0.354
HCC-78; first compound 0.3162 µM
  relative viability: 0.615
HCC-78; first compound 1 µM
  relative viability: 0.5
NCI-H460; first compound 0.01 µM
  relative viability: 0.518
NCI-H460; first compound 0.03162 µM
  relative viability: 0.622
NCI-H460; first compound 0.1 µM
  relative viability: 0.451
NCI-H460; first compound 0.3162 µM
  relative viability: 0.589
NCI-H460; first compound 1 µM
  relative viability: 0.636
NCI-H1703; first compound 0.01 µM
  relative viability: 0.143
NCI-H1703; first compound 0.03162 µM
  relative viability: 0.137
NCI-H1703; first compound 0.3162 µM
  relative viability: 0.146
NCI-H1703; first compound 1 µM
  relative viability: 0.131
NCI-H522; first compound 0.01 µM
  relative viability: 0.737
NCI-H522; first compound 0.03162 µM
  relative viability: 0.894
NCI-H522; first compound 0.1 µM
  relative viability: 0.504
NCI-H522; first compound 0.3162 µM
  relative viability: 0.967
NCI-H522; first compound 1 µM
  relative viability: 0.775

## O=c1cc(-c2cccc3c2Sc2ccccc2S3)oc(N2CCOCC2)c1 + NC(=O)Nc1cc(-c2cccc(F)c2)sc1C(=O)N[C@H]1CCCNC1 [AZD7762] (partner 0.2 µM)
NCI-H1648; first compound 0.253 µM
  relative viability: 0.694
NCI-H1648; first compound 0.8 µM
  relative viability: 0.734
NCI-H1648; first compound 8 µM
  relative viability: 0.69
NCI-H2342; first compound 0.08 µM
  relative viability: 0.415
NCI-H2342; first compound 0.253 µM
  relative viability: 0.466
NCI-H2342; first compound 0.8 µM
  relative viability: 0.545
NCI-H2342; first compound 2.53 µM
  relative viability: 0.529
NCI-H2342; first compound 8 µM
  relative viability: 0.541
HCC-78; first compound 0.08 µM
  relative viability: 0.624
HCC-78; first compound 0.253 µM
  relative viability: 0.643
HCC-78; first compound 0.8 µM
  relative viability: 0.472
HCC-78; first compound 2.53 µM
  relative viability: 0.614
HCC-78; first compound 8 µM
  relative viability: 0.655
NCI-H460; first compound 0.08 µM
  relative viability: 0.742
NCI-H460; first compound 0.253 µM
  relative viability: 0.695
NCI-H460; first compound 0.8 µM
  relative viability: 0.669
NCI-H460; first compound 2.53 µM
  relative viability: 0.431
NCI-H460; first compound 8 µM
  relative viability: 0.685
NCI-H1703; first compound 0.253 µM
  relative viability: 0.13
NCI-H1703; first compound 2.53 µM
  relative viability: 0.098
NCI-H1703; first compound 8 µM
  relative viability: 0.116
NCI-H522; first compound 0.08 µM
  relative viability: 0.821
NCI-H522; first compound 0.253 µM
  relative viability: 0.926
NCI-H522; first compound 0.8 µM
  relative viability: 0.864
NCI-H522; first compound 2.53 µM
  relative viability: 0.654
NCI-H522; first compound 8 µM
  relative viability: 0.813
